“And” between values parts separate entries of the source, which are not always exact repeats. Equal entries are not always repeated. Where two headings read alike, the source gives them in different places.
What was measured:
MV-4-11 = experiment: Proliferation assay (spheroid assay) MV-4-11; format: cell-based, human
In short: (§1)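 Cells were grown as spheroids in ultra-low attachment round-bottom wells with compound (0.3% DMSO) for 8 d at 37 °C, imaged every 4 h, with confluence as spheroid size. AUC of confluence versus time (t=0 baseline) was expressed as % of DMSO control, and absolute IC50 came from a least-squares nonlinear fit.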

MOLM14 = experiment: Proliferation assay (spheroid assay) MOLM14; format: cell-based, human
In short: as §1

K562 = experiment: Proliferation assay (spheroid assay) K562 control cell line; format: cell-based; conditions: Homo sapiens
Method: The anti-proliferative effect of menin/MLL protein/protein interaction inhibitor test compounds was assessed in human leukemia cell lines. The cell lines MV-4-11 and MOLM14 harbor MLL translocations and express the MLL fusion proteins MLL-AF4 and MLL-AF9, respectively, as well as the wildtype protein from the second allele. […] K562 and KG1 were used as a control cell lines containing two MLL wildtype alleles in order to exclude compounds that display general cytotoxic effects.
MV-4-11 and MOLM14 were cultured in RPMI-1640 (Sigma Aldrich) supplemented with 10% fetal bovine serum (HyClone), 2 mM L-glutamine (Sigma Aldrich) and 50 μg/ml gentamycin (Gibco). K562 were propagated in RPMI-1640 (Sigma Aldrich) supplemented with 20% fetal bovine serum (HyClone), 2 mM L-glutamine (Sigma Aldrich) and 50 μg/ml gentamycin (Gibco). KG1 were cultured in Iscove's MDM (Gibco) supplemented with 20% fetal bovine serum (HyClone), 2 mM L-glutamine (Sigma Aldrich) and 50 μg/ml gentamycin (Gibco).
In order to assess the anti-proliferative effects, 1,500 MV-4-11, 300 MOLM14, 750 K562 or 1,300 KG1 cells were seeded in 200 μl media per well in 96-well round bottom, ultra-low attachment plates (Costar, catalogue number 7007). Cell seeding numbers were chosen based on growth curves to ensure linear growth throughout the experiment. Test compounds were added at different concentrations and the DMSO content was normalized to 0.3%. Cells were incubated for 8 d at 37° C. and 5% CO2. Spheroid like growth was monitored in real-time by live-cell imaging (IncuCyteZOOM, Essenbio, 4× objective) acquiring one image every four hours for 8 d. Confluence (%) as a measure of spheroid size was determined using an integrated analysis tool.
In order to determine the cumulative effect of the test compounds over time, the area under the curve (AUC) in a plot of confluence against time was calculated. Confluence at the beginning of the experiment (t=0) was used as baseline for the AUC calculation.
Absolute IC50 values were calculated according to the following procedure: % Control=(AUC sample/AUC control)*100
AUC control=mean AUC of control values (cells without compound/DMSO as vehicle control)
A non-linear curve fit was applied using the least squares (ordinary) fit method to the plot of % control versus compound concentration. Based on this, the absolute IC50 value (half maximal inhibitory concentration of the test compound causing an anti-proliferative effect of 50% relative to the vehicle control) was calculated.

[1] = Homo sapiens, MV4-11, MV-4-11, averaged values over all measurements, read-out: Spheroid assay MV-4-11 (IC50)
[2] = Homo sapiens, MOLM-14, MOLM14, averaged values over all measurements, read-out: Spheroid assay MOLM14 (IC50)
[3] = K562 control cell line, averaged values over all measurements, read-out: Spheroid assay K562 (IC50)

Row | IC50 (MV-4-11; [1]) [µM] | IC50 (MOLM14; [2]) [µM] | IC50 (K562; [3]) [µM] | IC50 (MV-4-11; Homo sapiens, MV4-11, 192 h, MV-4-11, 8 d, individual measurements (not averaged), read-out: (2) Spheroid assay MV-4-11 (IC50 (μM))) [µM] | IC50 (MV-4-11; MV-4-11, 8 d, individual measurements (not averaged), read-out: (2) Spheroid assay MV-4-11 (IC50 (μM))) [µM] | IC50 (MOLM14; MOLM14, 8 d, individual measurements (not averaged), read-out: (2) Spheroid assay MOLM14 (IC50 (μM))) | IC50 (K562; 192 h, K562, 8 d, individual measurements (not averaged), read-out: (2) Spheroid assay K562 (IC50 (μM))) [µM] | SMILES
1 | 1.4 | 3.3 | 9 |  |  |  |  | Fc1ccccc1CN1CC[C@H]2CN(c3ncnc4sc(CC(F)(F)F)cc34)CC[C@H]21 (single isomer, unassigned) [Compound 6]
2 |  |  |  | 2.1 | 2.3 | 5.7 µM and > 15 µM | > 15 | FC(F)(F)Cc1cc2c(N3CC[C@H]4[C@H](CCN4Cc4ccc[nH]4)C3)ncnc2s1 (single isomer, unassigned) [Compound 8]
3 | 1.5 | 4.4 | 13.1 |  |  |  |  | FC(F)(F)Cc1cc2c(N3CCC4C(CCN4Cc4ccccc4)C3)ncnc2s1 (stereo not shown) [Compound 1]
4 | 7.3 | 9.8 | > 15 |  |  |  |  | FC(F)(F)Cc1cc2c(N3CCC4C3CCN4Cc3ccccc3)ncnc2s1 (stereo not shown) [Compound 2]

— patent publication US10611778B2, “Fused bicyclic inhibitors of menin-MLL interaction” (Janssen Pharmaceutica NV, priority 2016, dated 2020)
